{"source": "paper PMC11475320", "about": "(2024)", "experiment_in_all_cases": "CD melting at 260 nm", "key": {"[1]": {"system": "As1411 (DNA, G4) GGTGGTGGTGGTTGTGGTGGTGGTGG", "conditions": "K+ 40 mM, Mg2+ from TAMg buffer (0.04×), 2% DMF, 4 μM ZnPc, 16 μM DNA, derived from two Tm (59.8, 61.7)"}, "[2]": {"system": "AsGq (G-quadruplex of As4625') (DNA, G4) GGTGGTGGTGGTTGTGGTGGTGGTGGAACGGAGGCTGGGAT", "conditions": "K+ 40 mM, Mg2+ from TAMg buffer (0.04×), 2% DMF, 4 μM ZnPc, 16 μM DNA, derived from two Tm (53.0, 54.6)"}, "[3]": {"system": "AsGq-4625 (DNA, G4, strand 2: 2'-OMe at 1-5 and 16-20 (text b19; Table S1 footnote says 2'-modification with hydroxy group); phosphorothioate at all linkages) GGTGGTGGTGGTTGTGGTGGTGGTGGAACGGAGGCTGGGAT/AAGGCATCCCAGCCTCCGUU", "conditions": "K+ 40 mM, Mg2+ from TAMg buffer (0.04×), 2% DMF, 4 μM ZnPc, 16 μM DNA, derived from two Tm (52.3, 53.1)"}}, "data": [{"smiles": "[Zn+2].c1ccc2c(c1)-c1nc3nc(nc4[n-]c(nc5[n-]c(nc-2n1)c1ccccc51)c1ccccc41)-c1ccccc1-3", "values": [{"measurement": "ΔTm", "setting": "[1]", "result": 1.9, "unit": "°C"}, {"measurement": "ΔTm", "setting": "[2]", "result": 1.6, "unit": "°C"}, {"measurement": "ΔTm", "setting": "[3]", "result": 0.8, "unit": "°C"}]}]}
